US11571426B2, “Compositions for preventing or treating lupus” (CHONG KUN DANG PHARMACEUTICAL CORP., priority 2017, dated 2023)

How the values were obtained:
[1] = system: TNFα secretion in LPS-stimulated human monocyte cell lines (THP-1); experiment: Suppression of TNFα secretion in LPS-stimulated THP-1 (ELISA); assay type: cell-based; settings: at both 100 nM and 300 nM
Procedure: To identify the efficacy of the inventive compounds on suppressing a TNFα secretion in immune responses, suppression of TNFα production, which was achieved by a treatment with compounds 374, 461, 500, 530 and 532 according to the present invention in LPS-stimulated human monocyte cell lines (THP-1), was quantified by means of an enzyme immuno-assay (ELISA).
Specifically, the THP-1 cell lines (ATCC) were cultured in an RPMI-1640 medium comprising 10% FBS. The cell lines were divided into a 24 well plate at a ratio of 1×10^5 cells per well, then treated with 100 ng/mL PMA (phorbol 12-myristate 13-acetate) for 24 hours, and then differentiated into macrophage. Then, the culture medium was replaced with a new one, then treated with a test drug for 24 hours, and then treated again with 10 ng/mL LPS (E. Coli, O55:B5) for four hours for stimulation. After that, supernatant was taken and used to measure the amount of TNFα secreted from the cells by means of a Human TNFα Instant ELISA kit (eBioscience, BMS223INST) according to a protocol provided by a manufacturer.

NZB/W F1 female mice [2] = experiment: Survival rate in SLE model mouse; assay type: in vivo; settings: for survival rate: 42 weeks after birth
Procedure: (§1) 80 NZB/W F1 female mice (four weeks old) were purchased from Jackson Laboratory and maintained in an SPF breeding room with five mice per cage. Their weight and urine protein were measured at 24 weeks after birth (right before administration), and then all the animals except those having too much urine protein were divided into groups as shown in a table 2 below such that the urine protein and weight might be evenly distributed among the groups.
(§2) Then, the mice were administered as described in the table 2 once a day for about 19 weeks from 24 weeks after birth to 42 weeks after birth.
An NZB/W F1 female mouse is used as a human SLE disease model. If not treated at all, it is known that this model falls dead all after 12 months or so (about 52 weeks old) due to immune-complex glomerulonephritis.

NZB/W F1 female mice [3] = experiment: Serum anti-dsDNA antibodies (ELISA) in SLE model mouse; assay type: in vivo
Procedure: as §1, §2
(§3) The fresh urine of mice was collected before and after administration every two weeks, while blood collection was performed before and after administration every four weeks. The serum was prepared by centrifugation of the collected blood and then kept at −70° C.
To identify if the pharmaceutical composition according to the present invention may reduce an increased concentration of anti-dsDNA antibodies shown in the SLE model animal, a concentration of anti-dsDNA antibodies in mouse serum was measured by means of a mouse anti-dsDNA ELISA (enzyme-linked immunosorbent assay) kit (Shibayagi).

NZB/W F1 female mice [4] = experiment: T cell populations in spleen (FACS) in SLE disease mouse; assay type: in vivo
NZB/W F1 female mice [5] = experiment: Immunoglobulin isotypes in serum (Luminex); assay type: in vivo, mouse; settings: 50 mg/kg dosed group vs negative control
Procedure: as §1, §2
A concentration of immunoglobulin isotypes (IgG1, IgG2a, IgG2b, IgG3 and IgM) in the serum obtained during the mouse autopsy was measured by means of Luminex assay kit for mouse isotype (R&D systems, Minneapolis, Minn.).

NZB/W F1 female mice [6] = experiment: Serum CXCL10 and CCL2 in SLE disease mouse; assay type: in vivo; settings: 36 weeks old
Procedure: as §1, §2
Meanwhile, when a level of CXCL10 (IFN-inducible protein 10, IP-10) and CCL2 (MCP-1) in serum was measured at 36 weeks old, it was identified that the level of CXCL10 in serum was decreased in all the experimental groups, and the level of CCL2 in serum was decreased in the 50 mg/kg dosed group (FIG. 14).

NZB/W F1 female mice [7] = experiment: Serum cytokine level (Milliplex MAP kit) in SLE disease mouse; assay type: in vivo
Procedure: as §1, §2, §3
To analyze an effect of the inventive pharmaceutical composition on a change in a serum cytokine level in the SLE disease mouse, a level of GM-CSF, IFN-γ, IL-1α, IL-1β, IL-10, IL-12(p70), IL-15, IL-17a, IL-2, IL-4, IL-6, TNF-α, […], IL-22 and IL-23 in serum was measured by means of a Mouse cytokine Milliplex MAP kit (Merck Millipore), wherein the results thereof were shown in a table 3.
Data obtained from groups were compared using a Kruskal-Wallis (†p<0.05) *p<0.05 versus C group (Mann-Whitney U-test)

[8] = 50 mg/kg dosed group vs negative control
[9] = group D, 10 mg/kg/day i.p., n =10
[10] = group E, 30 mg/kg/day i.p., n = 14
[11] = group F, 50 mg/kg/day i.p., n = 14
[12] = mice of the experimental groups

## O=C(NO)c1ccc(CN(C(=O)N2CCOCC2)c2cccc(C(F)(F)F)c2)cc1 [Compound 374, N-(4-(hydroxycarbamoyl)benzyl)-N-(3-(trifluoromethyl)phenyl)morpholine-4-carboxamide]
[1]
  level of TNFα secretion: remarkably decreased
NZB/W F1 female mice [2]; 10 mg/kg dosed group
  survival rate: about 73.3%
NZB/W F1 female mice [2]; 30 mg/kg dosed group
  survival rate: about 93.3%
NZB/W F1 female mice [2]; 50 mg/kg dosed group
  survival rate: about 93.3%
NZB/W F1 female mice [2]; experimental groups (10, 30, 50 mg/kg), vs negative control
  survival rate pattern: better recovery pattern
NZB/W F1 female mice [3]; [8]
  decrease of serum concentration of anti-dsDNA antibodies: two-fold
NZB/W F1 female mice [3]; after 28 week after birth, all the experimental groups, vs negative control
  serum concentration of anti-dsDNA antibodies: tended to decrease more
NZB/W F1 female mice [4]; 10 mg/kg dosed group, vs negative control
  decrease of ratio of CD138+ cells: 21.2%
NZB/W F1 female mice [4]; 30 mg/kg dosed group, vs negative control
  decrease of ratio of CD138+ cells: 25.2%
NZB/W F1 female mice [4]; [8]
  decrease of ratio of CD138+ cells: 31.6%
NZB/W F1 female mice [5]
  concentration of IgG1 in serum: decreased
  concentration of IgG2a in serum: decreased
  concentration of IgG2b in serum: decreased
  concentration of IgG3 in serum: decreased
  concentration of IgM in serum: remarkably decreased
NZB/W F1 female mice [6]; 50 mg/kg dosed group
  level of CCL2 in serum: decreased
NZB/W F1 female mice [6]; all the experimental groups
  level of CXCL10 in serum: decreased
NZB/W F1 female mice [7]; [9]
  GM-CSF in serum: 2.65 ± 2.65 pg/mL
  IFN-γ in serum: 1.06 ± 1.06 pg/mL
  IL17 in serum: 10.40 ± 3.86 pg/mL
  IL22 in serum: 27.05 ± 9.95 pg/mL
  IL-1α in serum: 371.96 ± 82.72 pg/mL
  IL-1β in serum: 1.27 ± 0.65 pg/mL
  IL-2 in serum: 1.91 ± 1.77 pg/mL
  IL-4 in serum: 1.74 ± 0.19 pg/mL
  IL-6 in serum: 7.21 ± 2.34 pg/mL
  IL-10 in serum: 25.00 ± 8.01 pg/mL
  IL-12(70) in serum: 1.94 ± 1.17 pg/mL
  IL-15 in serum: 184.36 ± 88.58 pg/mL
  IL-23 in serum: 1.96 ± 1.96 pg/mL
  TGF-β in serum: 73356.45 ± 7258.05 pg/mL
  TNF-α in serum: 7.91 ± 2.67 pg/mL
NZB/W F1 female mice [7]; [10]
  GM-CSF in serum: 5.32 ± 4.06 pg/mL
  IFN-γ in serum: 6.60 ± 4.07 pg/mL
  IL17 in serum: 21.14 ± 14.59 pg/mL
  IL22 in serum: 13.00 ± 4.40 pg/mL
  IL-1α in serum: 458.40 ± 90.79 pg/mL
  IL-1β in serum: 74.66 ± 70.56 pg/mL
  IL-2 in serum: 9.32 ± 4.75 pg/mL
  IL-4 in serum: 8.60 ± 6.80 pg/mL
  IL-6 in serum: 21.23 ± 13.62 pg/mL
  IL-10 in serum: 56.55 ± 39.16 pg/mL
  IL-12(70) in serum: 74.50 ± 63.63 pg/mL
  IL-15 in serum: 162.41 ± 53.62 pg/mL
  IL-23 in serum: 100.56 ± 100.56 pg/mL
  TGF-β in serum: 58807.36 ± 6685.72 pg/mL
  TNF-α in serum: 16.25 ± 13.46 pg/mL
NZB/W F1 female mice [7]; [11]
  GM-CSF in serum: 1.89 ± 1.89 pg/mL
  IFN-γ in serum: 2.07 ± 1.44 pg/mL
  IL-1α in serum: 629.16 ± 128.47 pg/mL
  IL-1β in serum: 3.86 ± 2.09 pg/mL
  IL-2 in serum: 4.09 ± 2.63 pg/mL
  IL-4 in serum: 3.70 ± 1.73 pg/mL
  IL-6 in serum: 5.69 ± 2.39 pg/mL
  IL-12(70) in serum: 15.62 ± 12.09 pg/mL
  IL-23 in serum: 41.34 ± 41.34 pg/mL
NZB/W F1 female mice [7]; [12]
  TGF-β level: increased
  serum concentration of IL-10: decreased
  serum concentration of IL-12: decreased
  serum concentration of IL-15: decreased
  serum concentration of IL-17: decreased
  serum concentration of IL-22: decreased
  serum concentration of TNF-α: decreased
